This note sets out measurements from publication PMC3387161, “Small Molecules Targeted to a Non-Catalytic “RVxF” Binding Site of Protein Phosphatase-1 Inhibit HIV-1” (PLoS ONE, 2012).

The structures appear in SMILES notation. Some results are limits rather than exact numbers.

In data set [1] the test system is interaction of Tat with PP1α. Type of data set: cell-based, human.
The subject of data set [2] is HIV-1 transcription in CEM-GFP cells. Kind of data set: cells. Type of data set: cell-based.
For data set [3], the system named is HIV-1 LTR-Lac Z reporter in 293T cells. Kind of data set: HIV-1 LTR-directed transcription in 293T cells transfected with Tat vector and HIV-1 LTR-LacZ reporter. Format: cell-based. Particulars: Human immunodeficiency virus 1, HEK-293T, read-out: IC50 for inhibition of HIV-1 LTR-directed transcription in 293T cells.
Data set [4] deals with PP1 association with Tat, NIPP1 and PNUTS (Homo sapiens, UniProt P62136). Format: cell-based. Particulars: Tat-transfected 293T cells, LC-MS peak amplitude.
A further data set concerns the target T1, recombinant PP1α (Oryctolagus cuniculus, UniProt P62139).
T1 construct: purchased New England Biolabs, Ipswich, MA
Description: Malachite green dephosphorylation of generic KT(pT)IRR peptide by PP1α. Type of data set: biochemical. Conditions: 1H4 300 µM, KT(pT)IRR 3 µM; control 1.4. The method, then:
To determine whether 1H4 has an effect on the enzymatic activity of PP1, we used recombinant PP1α and a generic substrate, phosphorylated KT(pT)IRR peptide which is recognized equally well by PP1 and PP2A [13]. The KT(pT)IRR peptide (3 µM) was efficiently dephosphorylated by PP1α (Fig. 6A, V0 = 1.4 µM·min^−1). […] We further investigated the effect of 1H4 on PP1 enzymatic activity by analyzing the initial velocity versus KT(pT)IRR peptide substrate concentration plots in the absence and presence of 1H4 that were approximated by Michaelis-Menten equation (Fig. 6B) and also visualized in Lineweaver-Burk representation (Fig. 6C).
Figure 6 1H4 has no effect on PP1 enzymatic activity. […] The amount of released phosphate was quantified by the absorbance and phosphate concentration was recalculated using standards. Initial velocity was calculated by linear regression in Prism. […] The amount of released phosphate was quantified with malachite green. The VMAX and Km were calculated by non-linear regression analysis for Michaelis-Menten equation in Prism. […]
Inhibition data were analyzed using GraphPad Prism 4 software (GraphPad Software, La Jolla, CA). The IC50 values were determined from a sigmoidal dose-response (variable slope) curve using four parameter logistic equation Y = Bottom+(Top-Bottom)/([…]). […]

Data set [5] in a line: Trypan blue exclusion viability assay in CEM cells. Format: cell-based. Particulars: human, read-out: Cytotoxicity IC50 in CEM cells by trypan blue exclusion.
The next data set relates to 293T cells. Kind of data set: Cellular proteome analysis by mass spectrometry in 293T cells. Format: cell-based, human. Particulars: 10 µM, 18 h, 28 proteins with highest SEQUEST scores. The method, then: To determine if 1H4 has a negative effect on protein expression profiles, we analyzed the global cellular proteome by mass spectrometry. Protein expression was analyzed in 293T cells untreated or treated with 1H4 as described in Materials and Methods. We detected expression of 1722 proteins in the untreated sample and 1739 proteins in the 1H4-treated sample (not shown).
Samples were separated by reversed-phase liquid chromatography (HPLC), using micro-capillary column C18, coupled in line with nanospray and tandem mass spectrometer Thermo LTQ Orbitrap XL. The LC gradient was run for 60 min from 2% to 30% of acetonitrile containing 0.1% formic acid at flow rate 400 nL/min. In single measurement block we performed 1 FT MS scan and 3 data dependent FT MS/MS scans on major multi-charged MS peaks with resolution 30000. The normalized collision-induced dissociation (CID) energy was 35%. The MS/MS spectra were compared against those in the NCBI human protein database. Proteins that were not present in the database, i.e. recombinant Flag-Tat, were manually added to the database. Only peptides having X-correlation (X corr) cutoffs of 1.9 for [M +2H]^2+, 2.3 for [M +3H]^3+ and higher charge state were considered. […]
As a negative control untreated cells were used. […] The MS-MS data were analyzed by SEQUEST.

Sequence of PP1 association with Tat, NIPP1 and PNUTS (P62136 2-330): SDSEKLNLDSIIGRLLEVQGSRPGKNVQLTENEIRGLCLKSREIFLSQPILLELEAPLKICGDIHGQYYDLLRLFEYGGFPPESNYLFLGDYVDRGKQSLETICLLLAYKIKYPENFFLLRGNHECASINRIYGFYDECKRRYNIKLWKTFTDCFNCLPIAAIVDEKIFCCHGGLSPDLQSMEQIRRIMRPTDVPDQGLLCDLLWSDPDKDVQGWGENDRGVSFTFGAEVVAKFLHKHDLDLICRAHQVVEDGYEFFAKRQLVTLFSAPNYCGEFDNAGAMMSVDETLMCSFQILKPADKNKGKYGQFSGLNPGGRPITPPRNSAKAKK
T1 sequence (P62139 whole entry): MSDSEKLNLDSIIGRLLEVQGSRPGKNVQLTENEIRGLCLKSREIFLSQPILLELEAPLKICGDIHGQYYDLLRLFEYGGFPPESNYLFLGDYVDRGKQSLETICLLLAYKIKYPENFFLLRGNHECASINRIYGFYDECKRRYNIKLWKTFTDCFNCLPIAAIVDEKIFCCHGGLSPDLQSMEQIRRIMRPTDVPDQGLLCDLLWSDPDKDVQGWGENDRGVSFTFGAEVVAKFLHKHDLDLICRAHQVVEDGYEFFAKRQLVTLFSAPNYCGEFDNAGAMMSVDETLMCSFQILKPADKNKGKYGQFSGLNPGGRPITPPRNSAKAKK

In general, IC50 refers to the concentration that inhibits the measured activity by half. Regarding `COCCNC(=O)COC(=O)c1c2c(nc3ccccc13)/C(=C/c1ccc(O)cc1)CCC2` [1H4], in data set [1], the “Association of Tat with CDK9/cyclin T1” value is recorded as “no effect on the association of Tat with CDK9/cyclin T1” and the “PP1α co-precipitation with Flag-Tat” value is given as “reduced the amount of PP1α-EGFP that co-precipitated with Tat”. Moreover, in data set [2] (25 µM of each compound, 48 hours), the “Percent of inhibition of HIV-1 transcription in CEM GFP cells infected with Ad-Tat” value amounted to 96%. For the same compound, in data set [2] (Human immunodeficiency virus 1, CEM-GFP, 24 h, read-out: Inhibition of HIV-1 Transcription in CEM-GFP cells (IC50, μM)), the IC50 stood at 10 µM. Besides, the IC50 in data set [3] turned out to be 5 µM. Also, in data set [4], the “Interaction of PP1 with PNUTS and NIPP1” value is “without any effect on the interaction of PP1 with PNUTS or NIPP1”; the “Tat association with PP1 (microcystin precipitation)” value was “Tat association was reduced”. Further, the “V0 of KT(pT)IRR peptide dephosphorylation by PP1α in presence of compound” value on recombinant PP1α was 1.3 µM·min^-1. Moreover, the IC50 at 24 h in data set [5] was more than 100 µM. Also, in the data set on 293T cells, the “Effect on cellular proteome” value is “did not significantly change the cellular proteome”.
